Assays:
cats = assay: Development of insulin resistance in cats after intraportal muscarinic antagonists; type: in vivo, cat
Description: To avoid the complexity of the reaction to hypoglycemia, the rapid insulin sensitivity test (RIST) was employed (Lautt et al., Can. J. Physiol. Pharmacol. 76:1080 (1998)) wherein a euglycemic clamp was used following the administration of insulin and the response was quantitated as the amount of glucose required to be infused over the test period in order to hold arterial blood glucose levels constant.

atropine-treated rats = assay: Rapid insulin sensitivity test (RIST) in the atropine model of 75% HDIR in rats; type: in vivo, rat
Method: Male Sprague Dawley rats (250-300 g) were allowed free access to water and normal rodent food for 1 week prior to all studies. Rats were fasted for 8 hours overnight and fed for 2 hours before the start of study. Rats were anesthetized with pentobarbital-sodium (65 mg/ml, ip injection, 0.1 ml/100 g body weight). Animals were placed on a heated thermostatically controlled surgical table to maintain body temperature during surgery and the experimental procedure. An extra-corporeal arterial-venous shunt (the loop) was established between the right femoral artery and right femoral vein, according to a published, standard operating procedure developed in our laboratory (Xie et al., 1996). The loop allows for regular blood sampling of arterial blood throughout the experiment as well as infusion of intravenous drugs and monitoring of arterial blood pressure. […] A laparotomy was performed and an indwelling portal venous catheter was inserted using a portal vein puncture technique. The portal catheter was used to administer the phosphodiesterase inhibitor directly to the liver. […] At this point, blood samples (25 μl) were taken at regular intervals from the loop and analyzed for glucose concentration. […] Glucose levels were monitored every 2 minutes during and after the infusion of insulin. […]

Structure (SMILES): COc1ccccc1CNCCCCCCNCCCCCCCCNCCCCCCNCc1ccccc1OC [methoctramine]
- dose required to produce a full insulin resistance (cats; administered into the portal vein): 10^−6 μmol/kg

Structure (SMILES): CN1CCN(CC(=O)N2c3ccccc3C(=O)Nc3cccnc32)CC1 [pirenzepine]
- dose achieving a similar degree of insulin resistance (cats): 10^−7 mmol/kg

Structure (SMILES): CCCOc1ccccc1-c1nc2nn[nH]c2c(=O)[nH]1 [zaprinast]
- RIST index (atropine-treated rats; after zaprinast 0.1 mg/kg ipv, following atropine-induced 75% HDIR, n=8): 157.4 ± 6.1 mg/kg
- reversal of HDIR produced by atropine (atropine-treated rats; zaprinast 0.1 mg/kg ipv, rats): able to reverse the HDIR produced by atropine

Reference: patent US20050119272A1, “Use of phosphodiesterase antagonists to treat insulin resistance” (DiaMedica Inc., priority 2002, published 2005)
